The term Emax denotes the size of the effect at its maximum, as opposed to the concentration needed. By EC50 is commonly meant the concentration giving half of the maximal effect.

These results are taken from patent US20210147381A1, “1,2,3,4-SUBSTITUTED QUINOLINE COMPOUNDS AS SIP MODULATORS” (AbbVie Deutschland GmbH & Co. KG, priority 2017, published 2021).

Common to all, as to format: cell-based
Experiment [1] concerns the target T1, human S1P5 receptor (S1PR5) (Homo sapiens, UniProt Q9H228).
T1 construct: host or cells: CHO-K1
Put plainly: Intracellular Ca2+ release (method 1), agonist potency and efficacy, S1P5. The settings on record: for Emax: read-out: hS1P5 EMax; for EC50: recombinant CHO-K1 cells expressing human S1PR5, aequorin, Gq/i5, Ca2+ release, read-out: S1P5 EC50 range. Here is the method:
(§1) Agonistic activity and efficacy of compounds was assessed in recombinant cells using method 1 described below.
(§2) Agonist potency and efficacy were assessed by measurement of intracellular Ca^2+ release. Recombinant CHO-K1 cells (Euroscreen, Brussels, Belgium) expressing human S1PR5, S1PR1, S1PR3 or S1PR4 receptors, aequorin, and GTP binding protein Gq/i5 were cultured using a medium containing nutrient mixture F-12 Ham (Sigma-Aldrich) with 10% FBS, and 100 μg/mL gentamicin and equilibrated at 5% CO2.
(§3) 15,000 cells in 20 μL medium were seeded into Biocoat poly-D-Lysine coated 384 well plates (Becton Dickinson #35-6663) and grown to 95% confluency after 24 h.
(§4) Culture medium was replaced by an assay buffer consisting of HBBS with Ca^2+ and Mg^2+ (Invitrogen #14025-050), 20 mmol/L Hepes (Sigma-Aldrich #H-3375), 2.5 mmol/L probenecid (Sigma-Aldrich #P-8761, and 0.1% BSA (Sigma-Aldrich #A-7030) pH 7.4. The Calcium 5 no-wash FLIPR assay kit (Molecular Devices #5000625) was performed as described in the kit instructions. Cells were incubated with Calcium 5 dye for 1 h at 37° C., 5% CO2 in the dark. After 45 min adaptation to RT assessment of agonist stimulation of intracellular Ca^2+ release was performed by addition of test compounds at various concentrations obtained by serial dilution. Phospho-fingolimod was used as positive control and reference agonist (intrinsic activity 100%).
(§5) Agonism of test compounds at the human S1Px receptors were characterized by the EC50 values (potencies) deduced from a nonlinear 4 parametric logistic curve fit to the measured fluorescence data after normalization to the lower and upper plateaus of the fitted reference agonist's (phospho-fingolimod)effect curve and by their efficacy (Emax) values represented by their maximum achievable effects in % of the reference agonist's efficacy, which is defined as an Emax of 100%.

Experiment [2] has as its target T2, human S1P1 receptor (S1PR1) (Homo sapiens, UniProt P21453).
T2 construct: host or cells: CHO-K1
Put plainly: Intracellular Ca2+ release (method 1), agonist potency, S1P1. The settings on record: CHO-K1 cells expressing human S1PR1; cells given as bound. How it is done: as §1, §2, §3, §4, §5

Experiment [3] deals with T3, human S1P4 receptor (S1PR4) (Homo sapiens, UniProt O95977).
T3 construct: host or cells: CHO-K1
T3 sequence (O95977 1-384): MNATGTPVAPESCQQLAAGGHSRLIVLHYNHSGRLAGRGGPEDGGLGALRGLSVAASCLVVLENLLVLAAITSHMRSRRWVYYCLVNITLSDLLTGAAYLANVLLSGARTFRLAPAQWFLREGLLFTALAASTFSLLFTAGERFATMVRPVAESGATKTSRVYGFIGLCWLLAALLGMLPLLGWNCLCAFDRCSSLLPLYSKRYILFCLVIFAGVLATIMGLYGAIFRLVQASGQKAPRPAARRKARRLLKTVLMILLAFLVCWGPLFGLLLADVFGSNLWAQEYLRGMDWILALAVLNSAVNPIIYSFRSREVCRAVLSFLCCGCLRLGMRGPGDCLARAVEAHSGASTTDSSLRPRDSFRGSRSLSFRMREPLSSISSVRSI
The experiment can be described thus: Intracellular Ca2+ release (method 1), agonist potency, S1P4. Conditions: CHO-K1 cells expressing human S1PR4. Here is the method:
as §1, §2, §3, §4, §5

The mark [4] stands for this setting: maximum effect in % of reference agonist phospho-fingolimod (100%).

SMILES strings stand for the structures.

T1 sequence (Q9H228 whole entry): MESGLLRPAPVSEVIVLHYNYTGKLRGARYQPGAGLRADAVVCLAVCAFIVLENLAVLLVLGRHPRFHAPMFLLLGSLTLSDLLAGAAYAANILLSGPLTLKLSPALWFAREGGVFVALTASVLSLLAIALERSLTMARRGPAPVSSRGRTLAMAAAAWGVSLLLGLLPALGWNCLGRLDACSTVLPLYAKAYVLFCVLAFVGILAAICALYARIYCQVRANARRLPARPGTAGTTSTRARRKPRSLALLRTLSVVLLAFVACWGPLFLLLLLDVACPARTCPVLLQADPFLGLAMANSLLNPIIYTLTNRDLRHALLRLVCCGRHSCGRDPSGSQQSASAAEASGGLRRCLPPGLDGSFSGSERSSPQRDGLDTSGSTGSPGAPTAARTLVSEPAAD
T2 sequence (P21453 whole entry): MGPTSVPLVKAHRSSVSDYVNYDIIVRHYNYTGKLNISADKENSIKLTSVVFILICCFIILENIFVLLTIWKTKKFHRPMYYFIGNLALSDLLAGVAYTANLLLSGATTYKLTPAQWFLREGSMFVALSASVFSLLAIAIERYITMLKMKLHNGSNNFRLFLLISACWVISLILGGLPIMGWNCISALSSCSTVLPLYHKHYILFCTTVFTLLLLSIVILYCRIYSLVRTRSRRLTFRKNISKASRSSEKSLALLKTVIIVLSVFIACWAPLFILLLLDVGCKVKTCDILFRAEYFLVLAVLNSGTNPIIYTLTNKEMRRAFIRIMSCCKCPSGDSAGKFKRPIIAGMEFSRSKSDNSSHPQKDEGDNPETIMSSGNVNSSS

As to `O=C(O)CCCN1Cc2ccc(C#Cc3ccc(=O)n(CC4CC4)c3)cc2C2(CC2)C1` [Compound 4, 4-(6′-((1-(cyclopropylmethyl)-6-oxo-1,6-dihydropyridin-3-yl)ethynyl)-1′H-spiro[cyclopropane-1,4′-isoquinolin]-2′(3′H)-yl)butanoic acid], in experiment [1] (setting [4]), the maximum response (Emax) was in the range of 50 to 100%. Further, the concentration for a half-maximal effect (EC50) in experiment [1] was 1000 to 10000 nM; in experiment [2], over 1000 nM; in experiment [3] (cells given as bound), over 1000 nM.
With `CCOc1ccc(C#Cc2ccc3c(c2)C2(CC2)CN(CC(=O)O)C3)cc1` [Compound 5, 2′-(carboxymethyl)-6′-((4-ethoxyphenyl)ethynyl)-2′,3′-dihydro-1′H-spiro[cyclopropane-1,4′-isoquinolin]-2′-ium 2,2,2-trifluoroacetate], the maximum response (Emax) in experiment [1] (setting [4]) is 50 to 100%. For the same molecule, the EC50 in experiment [1] was 100 to 1000 nM; in experiment [2], over 1000 nM; in experiment [3] (cells given as bound), over 1000 nM.
Take `CC(C)c1ccc(C#Cc2ccc3c(c2)C2(CC2)CN(CC(=O)O)C3)cc1` [Compound 6, 2′-(carboxymethyl)-6′-((4-isopropylphenyl)ethynyl)-2′,3′-dihydro-1′H-spiro[cyclopropane-1,4′-isoquinolin]-2′-ium 2,2,2-trifluoroacetate]: in experiment [1] (setting [4]), the maximum response (Emax) was over 100%. Moreover, the concentration giving a half-maximal response (EC50) in experiment [1] is 100 to 1000 nM; in experiment [2] it was over 1000 nM; in experiment [3] (cells given as bound), over 1000 nM.
As for `CC(C)Oc1ccc(C#Cc2ccc3c(c2)C2(CC2)CN(CC2(C(=O)O)CC2)C3)cc1` [Compound 8, 1-((6′-((4-isopropoxyphenyl)ethynyl)-1′H-spiro[cyclopropane-1,4′-isoquinolin]-2′(3′H)-yl)methyl)cyclopropanecarboxylic acid], the Emax in experiment [1] (setting [4]) lay within 50 to 100%. The EC50 in experiment [1] is 100 to 1000 nM; in experiment [2] it was over 1000 nM; in experiment [3] (cells given as bound), over 1000 nM.
With `O=C(O)C1(CN2Cc3ccc(C#Cc4ccc(OC5CCCC5)nc4)cc3C3(CC3)C2)CC1` [Compound 9, 1-((6′-((6-(cyclopentyloxy)pyridin-3-yl)ethynyl)-1′H-spiro[cyclopropane-1,4′-isoquinolin]-2′(3′H)-yl)methyl)cyclopropanecarboxylic acid], in experiment [1] (setting [4]), the Emax was over 100%. In addition, the figures for the EC50 in experiment [1], in experiment [2] and in experiment [3] (cells given as bound) were 100 to 1000 nM, over 1000 nM and over 1000 nM, respectively.
As to `O=C(O)CN1Cc2ccc(OCc3c(Cl)cccc3Cl)cc2C2(CC2)C1` [Compound 12, 2-(6′-((2,6-Dichlorobenzyl)oxy)-1′H-spiro[cyclopropane-1,4′-isoquinolin]-2′(3′H)-yl)acetic acid], the Emax in experiment [1] (setting [4]) is 50 to 100%. Moreover, the EC50 is 100 to 1000 nM in experiment [1], over 1000 nM in experiment [2] and 100 to 1000 nM in experiment [3].
Consider `O=C(O)CCCN1Cc2ccc(OCc3ccc(Cl)cc3)cc2C2(CC2)C1` [Compound 16, 4-(6′-((4-Chlorobenzyl)oxy)-1′H-spiro[cyclopropane-1,4′-isoquinolin]-2′(3′H)-yl)butanoic acid], for which the maximum response (Emax) in experiment [1] (setting [4]) is under 50%. The values for the EC50 in experiment [1], in experiment [2] and in experiment [3] were 100 to 1000 nM, over 1000 nM and 100 to 1000 nM, respectively.
As for `O=C(O)CCCN1Cc2ccc(OCc3ccc(F)cc3)cc2C2(CC2)C1` [Compound 17, 4-(6′-((4-Fluorobenzyl)oxy)-1′H-spiro[cyclopropane-1,4′-isoquinolin]-2′(3′H)-yl)butanoic acid], the maximum response (Emax) in experiment [1] (setting [4]) was 50 to 100%. The EC50 in experiment [1] was 100 to 1000 nM; in experiment [2], over 1000 nM; in experiment [3] (cells given as bound), over 1000 nM.
For the molecule `CC(=O)O.O=C(O)CCN1Cc2ccc(C#Cc3c(Cl)cccc3Cl)cc2C2(CC2)C1` [Compound 30, 3-(6′-((2,6-dichlorophenyl)ethynyl)-1′H-spiro[cyclopropane-1,4′-isoquinolin]-2′(3′H)-yl)propanoic acid acetic acid salt (1:1)], the “hS1P5 EMax” value in experiment [1] (setting [4]) is “++ (EMax = 50-100, determined with method 1)”. Further, the concentration for a half-maximal effect (EC50) in experiment [3] was 100 to 1000 nM.
Regarding `CCOc1cc(C)c(C#Cc2ccc3c(c2)C2(CC2)CN(CCCC(=O)O)C3)cn1` [Compound 49, 4-(6′-((6-ethoxy-4-methylpyridin-3-yl)ethynyl)-1′H-spiro[cyclopropane-1,4′-isoquinolin]-2′(3′H)-yl)butanoic acid], in experiment [1] (setting [4]), the Emax fell in the range of 50 to 100%. Besides, the results for the EC50 in experiment [1], in experiment [2] and in experiment [3] (cells given as bound) were 10 to 100 nM, over 1000 nM and over 1000 nM, respectively.
As for `CCOc1ccc(C#Cc2ccc3c(c2)C2(CC2)CN(CCCC(=O)O)C3)cn1` [Compound 50, 4-(6′-((6-ethoxypyridin-3-yl)ethynyl)-1′H-spiro[cyclopropane-1,4′-isoquinolin]-2′(3′H)-yl)butanoic acid], the maximal effect (Emax) in experiment [1] (setting [4]) lay in the range of 50 to 100%. The 50% effective concentration (EC50) in experiment [1] was 100 to 1000 nM; in experiment [2] it was over 1000 nM; in experiment [3] (cells given as bound) it was over 1000 nM.
For the molecule `CCOc1ncc(C#Cc2ccc3c(c2)C2(CC2)CN(CCCC(=O)O)C3)cc1F` [Compound 51, 4-(6′-((6-ethoxy-5-fluoropyridin-3-yl)ethynyl)-1′H-spiro[cyclopropane-1,4′-isoquinolin]-2′(3′H)-yl)butanoic acid], the Emax in experiment [1] (setting [4]) was in the range of 50 to 100%. Besides, the EC50 is 100 to 1000 nM in experiment [1], over 1000 nM in experiment [2] and over 1000 nM in experiment [3] (cells given as bound).
For `CC(C)Oc1ccc(C#Cc2ccc3c(c2)C2(CC2)CN(CCCC(=O)O)C3)nc1` [Compound 52, 4-(6′-((5-isopropoxypyridin-2-yl)ethynyl)-1′H-spiro[cyclopropane-1,4′-isoquinolin]-2′(3′H)-yl)butanoic acid], in experiment [1] (setting [4]), the maximal response (Emax) was over 100%. The EC50 is 100 to 1000 nM in experiment [1], over 1000 nM in experiment [2] and over 1000 nM in experiment [3] (cells given as bound).
Consider `CCOc1ccc(C#Cc2ccc3c(c2)C2(CC2)CN(CCCC(=O)O)C3)c(C)n1` [Compound 53, 4-(6′-((6-ethoxy-2-methylpyridin-3-yl)ethynyl)-1′H-spiro[cyclopropane-1,4′-isoquinolin]-2′(3′H)-yl)butanoic acid], for which the Emax in experiment [1] (setting [4]) fell in the range of 50 to 100%. The half-maximal effective concentration (EC50) in experiment [1] was 100 to 1000 nM; in experiment [2] it was over 1000 nM; in experiment [3] (cells given as bound), over 1000 nM.
With `CCOc1ccc(C#Cc2ccc3c(c2)C2(CC2)CN(CCCC(=O)O)C3)nc1` [Compound 54, 4-(6′-((5-ethoxypyridin-2-yl)ethynyl)-1′H-spiro[cyclopropane-1,4′-isoquinolin]-2′(3′H)-yl)butanoic acid], in experiment [1] (setting [4]), the maximal response (Emax) lay within 50 to 100%. Further, the concentration giving a half-maximal response (EC50) in experiment [1] is 1000 to 10000 nM; in experiment [2], over 1000 nM; in experiment [3] (cells given as bound) it was over 1000 nM.
Consider `COc1ncc(C#Cc2ccc3c(c2)C2(CC2)CN(CCCC(=O)O)C3)cc1F` [Compound 55, 4-(6′-((5-fluoro-6-methoxypyridin-3-yl)ethynyl)-1′H-spiro[cyclopropane-1,4′-isoquinolin]-2′(3′H)-yl)butanoic acid], for which the Emax in experiment [1] (setting [4]) was under 50%. Moreover, the 50% effective concentration (EC50) in experiment [1] was 1000 to 10000 nM; in experiment [2], over 1000 nM; in experiment [3] (cells given as bound) it was over 1000 nM.
Turning to `O=C(O)CCCN1Cc2ccc(C#Cc3ccc4c(c3)OCO4)cc2C2(CC2)C1` [Compound 56, 4-(6′-(benzo[d][1,3]dioxol-5-ylethynyl)-1′H-spiro[cyclopropane-1,4′-isoquinolin]-2′(3′H)-yl)butanoic acid], the Emax in experiment [1] (setting [4]) is 50 to 100%. Moreover, the EC50 in experiment [1] was 1000 to 10000 nM; in experiment [2], over 1000 nM; in experiment [3] (cells given as bound), over 1000 nM.
As to `COc1ccc(C#Cc2ccc3c(c2)C2(CC2)CN(CCCC(=O)O)C3)c(C)n1` [Compound 57, 4-(6′-((6-methoxy-2-methylpyridin-3-yl)ethynyl)-1′H-spiro[cyclopropane-1,4′-isoquinolin]-2′(3′H)-yl)butanoic acid], the Emax in experiment [1] (setting [4]) fell in the range of 50 to 100%. Also, the values for the EC50 in experiment [1], in experiment [2] and in experiment [3] (cells given as bound) were 1000 to 10000 nM, over 1000 nM and over 1000 nM, respectively.
